In general, IC50 refers to the concentration at which inhibition is half-maximal. Read a low IC50 as greater potency.

Structures are written as SMILES. Starred links: 1 amine or outer side, 2 acyl side, 3 side chain; linkers in the order of their positions; H or OH if unused. Residues, ends and D or L forms follow the SMILES beside them. CO = O=C([*:1])[*:2]

In the test the target is Furin (Homo sapiens, UniProt P09958). The experiment in a line: biochemical.
Chain of Furin (P09958 whole entry): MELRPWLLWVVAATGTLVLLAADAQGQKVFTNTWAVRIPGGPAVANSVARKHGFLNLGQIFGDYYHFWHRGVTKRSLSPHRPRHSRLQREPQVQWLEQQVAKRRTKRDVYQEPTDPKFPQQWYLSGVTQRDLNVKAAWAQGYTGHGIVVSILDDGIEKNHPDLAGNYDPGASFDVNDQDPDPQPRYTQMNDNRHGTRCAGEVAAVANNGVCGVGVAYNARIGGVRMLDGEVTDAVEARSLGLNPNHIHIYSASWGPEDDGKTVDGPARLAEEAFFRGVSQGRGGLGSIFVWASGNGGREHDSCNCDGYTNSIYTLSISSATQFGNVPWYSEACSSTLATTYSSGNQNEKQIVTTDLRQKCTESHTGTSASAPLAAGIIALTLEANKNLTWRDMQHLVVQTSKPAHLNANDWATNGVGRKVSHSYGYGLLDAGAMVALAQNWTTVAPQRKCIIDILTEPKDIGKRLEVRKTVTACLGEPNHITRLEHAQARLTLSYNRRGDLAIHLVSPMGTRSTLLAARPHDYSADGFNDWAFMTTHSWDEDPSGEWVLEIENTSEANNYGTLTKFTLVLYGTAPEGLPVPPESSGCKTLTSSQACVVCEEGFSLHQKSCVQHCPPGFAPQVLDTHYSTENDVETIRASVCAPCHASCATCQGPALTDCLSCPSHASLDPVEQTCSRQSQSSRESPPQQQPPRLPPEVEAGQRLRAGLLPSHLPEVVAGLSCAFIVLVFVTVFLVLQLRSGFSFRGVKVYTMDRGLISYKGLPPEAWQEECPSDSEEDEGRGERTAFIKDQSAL

For `CC(C)[C@H](NC(=O)[C@H](CCCNC(=N)N)NC(=O)N[C@@H](Cc1ccccc1)C(=O)O)C(=O)N[C@H](C=O)CCCNC(=N)N` [Antipain] ({Phe-CO}-Arg-Val-Arg-aldehyde), the 50% inhibitory concentration (IC50) is greater than 10 µM. The figure for `CN(C)C(=O)COC(=O)Cc1ccc(OC(=O)c2ccc(NC(=N)N)cc2)cc1` [Camostat] is greater than 10 µM.

Values taken from paper doi:10.1101/2021.01.04.425289v1 (biorxiv, 2021).
